Data taken from paper PMC11802874, “The hypolipidemic effect of MI-883, the combined CAR agonist/ PXR antagonist, in diet-induced hypercholesterolemia model” (Nature Communications, 2025).
Where “and” joins values, the source holds several entries; their conditions need not be identical. Equal values may be shown once.

Legend:
rats = test: Repeated dose 28-day oral toxicity study in rats (OECD 407, non-GLP); assay type: in vivo; settings: up to 10 mg/kg
Procedure: (§1) A repeated dose 28-day oral toxicity study in Rats (Non–GLP Study) was carried out according to OECD Guideline for Testing of Chemicals No. 407 and relevant Test Facility SOPs at the Institute of Physiology, Academy of Sciences, Czech Republic as a service. The report is available after request. […] No clinical changes were observed during the administration period or the recovery period in the two selected groups. […]

[1] = as above; assay type: in vivo; settings: rat, in vivo, 10 mg/kg; 28 days per os, rats
Procedure: as §1

[2] = system: humanized PXR-CAR-CYP3A4/3A7 mice, liver; test: NGS RNA-Seq of liver samples (HFD study); assay type: in vivo, mouse
Procedure: Total RNA from liver samples has been isolated using TRIZOL®. Total RNA was purified using Agencourt RNAClean XP Beads (Beckman Coulter, Inc.) and then the diluted RNA was quantified using Qubit 2.0 Fluorometer with Qubit RNA BR Assay Kit (Invitrogen) for precise measurement. The integrity of purified RNA was evaluated based on RIN (>7) acquired using the 2100 Bioanalyzer System with Total RNA Nano Chip (Agilent Technologies) according to the manufacturer’s protocol.
The input amount of total RNA used in the libraries was 520 ng. Libraries were constructed with NEBNext Ultra II Directional RNA Library Prep Kit for Illumina (New England Biolabs Inc., Ipswich, MA, USA). […] The samples were multiplexed using suitable molecular barcodes by using the NEBNext Multiplex Oligos from Illumina. Adaptor enrichment was performed by using eight cycles of PCR.
The concentration of molecular libraries was measured using Qubit 2.0 Fluorometer with Qubit dsDNA HS Assay Kit (Invitrogen) and subsequently, the fragment sizes were analyzed by Bioanalyzer System 2100 using High Sensitivity DNA Chip (Agilent Technologies), with expected fragments between 200 and 600 bp in size. The molarity of individual libraries was calculated using determined concentrations and modal lengths. Each sample of the library was normalized to 14 nM concentration, and the normalized libraries were pooled and sequenced on an Illumina NovaSeq6000 platform (Illumina) with paired-end sequencing of libraries with a read length of 150 b.
The quality of raw sequencing data was assessed using MultiQC tool. Fastq files were aligned to the mouse reference genome (mm10) using STAR aligner and featureCounts was used to make count matrices. Data was filtered to only include genes with a minimum 60 counts in all samples. Data were analyzed using the DESeq2 package of RStudio 2023.06.1 and R software v4.3.1 (https://www.R-project.org/). […] P values were adjusted for multiple testing to reduce false discovery rate. For further analysis RNAs with more than twofold expression were selected (log2FC > 1 or < –1). Differential expression was analyzed using DESeq2 package (Fig. 4a). Volcano plot was visualized using R package ggplot2 and ggrepel. Gene ontology (GO) and pathway analyses were done with the R package clusterProfiler[64] using function enrichGO. P value < 0.001 was defined as the significance threshold.
A heatmap was made using z-score normalized reads (z = [x-mean]/standard deviation) and visualized using the R package pheatmap. Hierarchical clustering was performed with the Ward method as a part of the pheatmap R package. The data presented in this publication have been deposited in NCBI’s Gene Expression Omnibus database with GEO Series accession number GSE262786.https://www.ncbi.nlm.nih.gov/geo/query/acc.cgi?acc=GSE262786.

human PXR LBD = target: T1, human PXR LBD (Homo sapiens, UniProt O75469); test: PXR LBD assembly assay in HepG2 cells; assay type: cell-based
T1 construct: helix 1 part of the LBD of PXR (residues 132–188); helices 2-12 of the PXR-LBD (residues 189-434); expressed in transfected cells; host or cells: HepG2
T1 sequence (O75469 132-188): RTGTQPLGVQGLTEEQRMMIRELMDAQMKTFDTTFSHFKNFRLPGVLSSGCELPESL
T1 sequence (O75469 189-434): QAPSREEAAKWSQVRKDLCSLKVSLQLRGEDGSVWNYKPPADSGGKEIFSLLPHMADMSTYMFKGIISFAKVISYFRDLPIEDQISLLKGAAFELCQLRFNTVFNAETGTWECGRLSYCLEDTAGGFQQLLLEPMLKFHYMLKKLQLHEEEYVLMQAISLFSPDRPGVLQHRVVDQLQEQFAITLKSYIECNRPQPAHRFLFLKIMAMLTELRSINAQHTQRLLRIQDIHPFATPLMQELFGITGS
Description: A human PXR LBD assembly assay (Fig. 1k) was done with expression plasmids encoding fusion protein of GAL4-DNA binding domain (DBD) and helix 1 part of the LBD of PXR (residues 132–188) and fusion protein of VP16 activation domain (AD) and helices 2-12 of the PXR-LBD (residues 189-434), respectively, which have all been described previously. Metridia luciferase expression plasmid pMetLuc2control was obtained by Takara-Clontech (Mountain View, CA, USA). Transient batch transfection of HepG2 cells was done in 96-well plates using Jet-PEI transfection reagent (Polyplus, Illkirch, France), as described previously. The following amounts of plasmid DNA per well were used: 0.24 µg pGL4-G5 and 0.03 µg each of expression plasmids encoding GAL4-DBD/PXR(132-188) and VP16-AD/PXR(189-434). All transfections included 0.01 µg pMetLuc2control per well for normalization of firefly luciferase reporter activities. After overnight incubation with the transfection mixtures, cells were treated with chemicals in a volume of 100 µl of cell culture medium. […] Firefly luciferase activity was measured in 10 µl of cell lysates, and Metridia luciferase activity was analyzed in 10 µl of medium supernatant, both as described before. Results were normalized by dividing firefly luciferase activity by Metridia luciferase activity measured from the same well.

LXRβ = LXRβ (Homo sapiens, UniProt P55055); test: Luciferase reporter gene assay LXRβ, HepG2
Sequence of LXRβ (P55055 222-460 limits assumed): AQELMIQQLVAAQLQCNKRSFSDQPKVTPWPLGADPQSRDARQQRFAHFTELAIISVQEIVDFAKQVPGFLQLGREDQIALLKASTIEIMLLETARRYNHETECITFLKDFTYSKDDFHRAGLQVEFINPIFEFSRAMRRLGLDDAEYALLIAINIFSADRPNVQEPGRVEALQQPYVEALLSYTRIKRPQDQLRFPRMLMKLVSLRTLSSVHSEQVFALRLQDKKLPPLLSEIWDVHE
Description: Gal4-LBD constructs of tested nuclear receptors have been used together with pGL4.31[luc2P/GAL4UAS/Hygro] luciferase reporter construct and pRL-TK Renilla expression vector (both from Promega, Hercules, USA) in HepG2 cells transfected with Lipofectamine 2000 or 3000 reagents. For GRα and FXR receptors, full-length expression vectors have been used with pGRE-luc or pFXRE-luc luciferase constructs. For the aryl hydrocarbon receptor (AhR), p1A1-luc construct was used with only pRL-TK vector for transfection normalization. A dual reporter assay (Promega, Hercules, USA) was used to analyze both firefly and Renilla luciferase activities.
Gal4-LBD constructs of tested nuclear receptors have been used together with pGL5-luc luciferase reporter construct and pRL-TK Renilla expression vector in HepG2 cells transfected with Lipofectamine 2000 or 3000 reagents. For GRα and FXR receptors, full-length expression vectors have been used with pGRE-luc or pFXRE-luc luciferase constructs. For the aryl hydrocarbon receptor (AhR), p1A1-luc construct was used with only pRL-TK vector for transfection normalization. […] Bars represent means±S.D. (n=3).

[3] = Metabolic stability in human liver S9 fraction
Procedure: Shimadzu HPLC system including vacuum degasser, gradient pumps, reverse phase HPLC column, column oven, and autosampler with an API 4000 QTRAP mass spectrometer (Applied Biosystems/MDS Sciex (AB Sciex) with Turbo V ion source and TurboIonspray interface were used. The reference compound midazolam, which is metabolized both by phase I and phase II enzymes, was used. The elimination constant (kel), half-life (t1/2), and intrinsic clearance (Clint) were determined[19] (Table S1).
Supplementary Figure 1. […] Test compounds (1 μM, final DMSO concentration 1%) were incubated at 37 °C with shaking at 100 rpm. Four time points over 120 minutes have been analyzed. The reactions were stopped by adding 420 μL of acetonitrile-water mixture (90:10). Supernatants were analyzed by the HPLC system coupled with a tandem mass spectrometer. The percentage (in % of initial concertation) of the test compounds remaining after incubation in plasma and their half-lives (t1/2) were calculated. […] The stability of the compound was tested in human liver S9 fraction. Cofactors were used such as UDPGA (for glucuronidation), PAPS (for sulfation), and reduced glutathione (for conjugation of GSH). Compounds were tested in triplicate with or without NADPH. Propantheline and midazolam were used as unstable control compounds in the experiments. Data represent the means±S.D. from at least three independent samples.

SMILES: NC(=O)c1cc(Cn2cc(-c3c(-c4ccc(Cl)cc4)nc4cc(F)ccn34)nn2)ccc1Cl [MI-883, 2-chloro-5-((4-(2-(4-chlorophenyl)-7-fluoroimidazo[1,2-a]pyridin-3-yl)-1H-1,2,3-triazol-1-yl)methyl)benzamide]
- toxicity in 28-day oral study in rats (rats): no toxicity
- toxicity in 28-day oral study in rats (rats; listed as MI833): No clinical signs of toxicity
- NOAEL at 28 days [1]: > 10 mg/kg
- liver Apoc1, Apoc4, Apoa5, Apoa1, RNA-Seq ([2]; HFD study): marginally but significantly downregulated
- liver Scarb1, Angptl3, Lipc, RNA-Seq ([2]; HFD study): marginally, but significantly, downregulated
- liver genes of fatty acid metabolism (Scd1, Fabp2, Srebf1), RNA-Seq ([2]; HFD study): significantly downregulated
- liver transporters Abcb1, Bsep, Abcg5/8 ([2]; HFD study): not been significantly affected
- liver Hmgcr mRNA upregulation ([2]; HFD study (Fig. 6e)): 1.31 fold and 1.3 fold
- liver Scd1 mRNA, log2FC_DESeq ([2]; HFD study, n=5, FDR_DESeq 0.0023): -0.4854 log2FC
- liver Cyp2c70, log2FC ([2]; HFD study, 0.008 FDR_DESeq): –0.58 log2FC
- PXR LBD assembly (human PXR LBD): stimulates
- NRs assays: LXRbeta (relative to ctrl, replicates) (LXRβ): 0.51 and 0.81 and 0.55
- half-life at 2 µM ([3]; human, liver S9 fraction): 2.85 h
- microsomal CLint at 2 µM ([3]; human, liver S9 fraction): 2 µL/min/mg
- Stability in S9 fraction (human liver), % remaining ([3]; time 0 (min), 2 μM): 100
- Stability in S9 fraction (human liver), % remaining ([3]; time 20): 100
- Stability in S9 fraction (human liver), % remaining ([3]; time 40): 92
- Stability in S9 fraction (human liver), % remaining ([3]; time 60): 96
- Stability in S9 fraction (human liver), % remaining ([3]; time 120): 84
